Results taken from article PMC8834506, “Optimization of Thymidine Kinase-Based Safety Switch for Neural Cell Therapy” (Cells, 2022).
Entries after “also recorded” stand apart in the source; their conditions may differ. Read-outs that look alike come from different tables or passages of the source.

Assays:
host cell DNA = settings: cited from earlier work
[1] = tested on: non-transduced hESC colonies; assay: Morphology and size of hESC colonies upon nucleoside treatment; type: cell-based, human
Excerpt: We next investigated the impact of ACV, PCV, and GCV on non-transduced hESC and neuroprogenitors (proliferating ReNcells). […] To further understand the impact of nucleoside analogs on non-transduced cells, we performed γ-H2A.X immunostaining (Figure 6B). There was a graded response, virtually identical in hESC and in neuroprogenitors. […] In addition, we investigated the morphology and size of non-transduced hESC colonies upon nucleoside treatment. […] Taken together, our findings confirm considerable toxicity of GCV, even in the absence of viral TK. Note that this was not the case for PCV despite the fact that it is a potent inducer of cell death in thymidine kinase-expressing cells.
(§1) Cells were exposed to 100 µM of the respective nucleoside for 48 h. DNA damage was monitored using γ-H2A.X marker in yellow and nuclei were counterstained with Hoechst. The white box in the first column indicates the area of the zoom for the hESC colonies.

[2] = type: in vivo, NOD/SCID mice; settings: 40 mg/kg/day i.p.; weighed daily during treatment
Method: (§2) Given the encouraging in vitro results, we next investigated whether this newly developed safety switch system (SR39h and different nucleoside analogs) could prevent tumor formation in vivo. For this purpose, 20,000 undifferentiated Ki67-SR39h-expressing hESC were transplanted into the striatum of NOD/SCID mice. […] A group of control mice received only a NaCl solution. […] Human cytoplasmic marker (HCM) staining confirmed the human (i.e., hESC-derived) origin of these tumors. Tumors cells were predominantly Ki67 positive with a rosette organization as frequently found in tumors of the central nervous system.
Supplementary Figure S3: Mice weight
Mice were weighed daily during guanosine analogs treatment to identify differences in weight gain/loss between treated groups. No differences were observed between treatment groups.
Supplementary Figure S4: in vivo validation of suicide gene. Coronal section of NOD/SCID mice 47 days after injection of hESC expressing the SR39h thymidine kinase variant. Mice were treated for 2x5 days with the respective nucleoside analogs (see Methods). Upper lane: ACV; middle lane: PCV; lower lane: GCV. Sections were colored with cresyl violet and dark purple staining reflects a high density of nuclei. Scale bar 1000 µm. […]

[3] = tested on: hESC (HS420) expressing Ki67-SR39h; assay: ATP-based cell survival assay, nucleoside-induced cell death; settings: for EC50: SR39h under Ki67 promoter
non-transduced hESC = type: cell-based; settings: 96 h nucleoside exposure; up to 100 µM
Method: as §1
Plates were washed twice with DMEM-F12 (Gibco, ThermoFisher; Geneva, Switzerland), then coated with Matrigel (Corning, Lonay, Switzerland) 1/100 in DMEM-F12 and incubate 2 h at 37°. Cells were detached using Accutase and seeded at 2000 cells/well in serum-free culture medium containing 10 µM of ROCK inhibitor. At 24 h, the cell culture was continued without ROCK inhibitor. […] Drugs were prepared by serial dilution (two-fold) in 100% DMSO. At 48 h after seeding, cells were exposed to antiviral drugs for 96 h. For EC50 assays, the medium was changed daily for 4 days, then cell viability was assessed using an ATP-based assay. EC50 values for each construct were calculated using a four parameters equation (GraphPad, Prism8, San Diego, CA, USA). The same procedure was used for the cell death kinetic determinations except the treatment duration. Luminescence was measured using Spectra L384/L96 (0.2 sec exposure, Molecular devices, Biberach an der Riß, Germany).

[4] = tested on: sister chromatid exchange; design: method as in PMID 10719044; settings: at concentrations far below those impairing the proliferative activity; cited from earlier work
[5] = tested on: Ki67-SR39h-expressing hESC transplanted into the striatum; assay: In vivo prevention of tumor formation after striatal transplantation; design: species or system NOD/SCID mice; settings: 40 mg/kg/day i.p., 47 days post-transplantation
Method: as §2
Figure 7 in vivo validation of suicide gene and inducers. (A) Schematic diagram of the experimental setup to detect tumor elimination in vivo. NOD/SCID mice were transplanted with 20,000 SR39h-expressing hESC through stereotactic injection into the striatum. 48 h post transplantation, mice were intraperitoneally injected with the respective nucleoside (40 mg/kg) for five consecutive days a week during a two-week period. Control mice were treated with a NaCl solution. Mice were sacrificed 47 days post transplantation. (B) Cresyl violet staining of a brain section. […] (C) Immunostaining of brain coronal section (sections from ACV-, PCV-, and GCV-treated mice are shown in the upper, middle, and lower row, respectively). Staining with the proliferation marker Ki67 and with the human cytoplasmic marker (HCM) are shown in red and green, respectively. Nuclei were counterstained with DAPI (blue). White arrows show residual proliferative cells form the graft. A merge of the three staining is shown in the right column. Each experimental group consisted of five mice.
Single cell transplant: Undifferentiated HS420 (expressing TK variants) were detached by TrypLE and concentrated at 20,000 cells/μL in Stemflex. 20,000 cells (1 μL) were injected into the right striatum using a 26-G Hamilton syringe (Hamilton, BGB Analytik AG, Boeckten, Switzerland). Injection coordinates for striatum were: bregma = 0.6 mm, mediolateral = 2 mm, dorsoventral = 3 mm.
Thirty days after termination of treatment with the respective antiviral nucleoside analogs or control (NaCl), mice were sacrificed by intracardiac perfusion of paraformaldehyde 4% in PBS. Brains were removed from the skull and post-fixed in the same fixative overnight.
Paraffin embedded brains were sectioned (coronal sections 7 µm thick) and processed for hematoxylin and eosin or cresyl violet staining stain aiming morphological assessment of the graft. Sections were mounted in Eukitt (Kindler GmbH, Germany) and observed under microscope (see below)
The primary antibody diluted in PBS with 0.3% Triton was incubated at 4 °C overnight in agitation. […]

[6] = Homo sapiens, 96 h, read-out: EC50 (cell survival), 96 h nucleoside exposure

## Nc1nc2c(ncn2COCCO)c(=O)[nH]1 [ACV, acyclovir]
Host cell DNA
  Fragmentation of host cell DNA: no fragmentation of host cell DNA
[1]
  Effect on morphology and size of colonies: did not observe an effect
[2]
  Differences in weight among groups: no significant differences in weight
[3]; 96 h nucleoside exposure
  Cell death induction in SR39h-expressing cells (in words): induced only very little cytotoxicity
[3]; [6]
  EC50: 2900 nM

## CC(=O)OCC(CCn1cnc2cnc(N)nc21)COC(C)=O [FAM, famciclovir]
[3]; 96 h nucleoside exposure
  Cell death induction in SR39h-expressing cells (in words): did not show any toxic effects; also recorded: did not show any activity
[3]; [6]
  EC50: > 100000 nM

## Nc1nc2c(ncn2CCC(CO)CO)c(=O)[nH]1 [PCV, penciclovir]
non-transduced hESC
  Toxicity in non-transduced hESC: did not observe toxicity
Host cell DNA
  Fragmentation of host cell DNA: induce fragmentation of host cell DNA
[1]
  Effect on morphology and size of colonies: did not observe an effect
[2]
  Differences in weight among groups: no significant differences in weight
[4]
  Induction of sister chromatid exchange: not
[3]; 96 h nucleoside exposure
  Cell death induction in SR39h-expressing cells (in words): strong suicide inducers
[3]; [6]
  EC50: 2.4 nM
[5]; five consecutive days a week for two weeks, from 2 days after transplantation, five mice per group
  Tumor formation: prevented tumor formation; also recorded: no major tumors; also recorded: impressive anti-tumor activities
[5]; cresyl violet staining
  Mice with a small nuclei-rich region at the graft site: small nucleus-rich region in one of the PCV-treated mice; also recorded: one out of five

## O=c1[nH]c(=O)n([C@H]2C[C@H](O)[C@@H](CO)O2)cc1/C=C/Br [BRVD, brivudine]
[3]; 96 h nucleoside exposure
  Cell death induction in SR39h-expressing cells (in words): induced only very little cytotoxicity
[3]; [6]
  EC50: ~60000 nM

## CC(C)[C@H](N)C(=O)OCC(CO)OCn1cnc2c(=O)nc(N)[nH]c21 (stereo partly drawn) [Val-GCV, valganciclovir]
[3]; 96 h nucleoside exposure
  Cell death induction in SR39h-expressing cells (in words): relatively weak, but clearly discernible activity
[3]; [6]
  EC50: 31 nM
[3]; read-out: EC50 (cell survival), 96 h nucleoside exposure
  EC50: 32 nM
